Laboratory results: publication PMC8147781, “Discovery of Pyrrolidine-2,3-diones as Novel Inhibitors of P. aeruginosa PBP3” (Antibiotics, 2021)
Values after ≈ are worked out from the molar mass of the structure shown.

Legend:
[1] = system: NRK-52E, epithelial kidney cell line; assay: Cytotoxicity assay (PrestoBlue), NRK52E; conditions: CC50, 72 h
Procedure: (§1) We finally tested the cytotoxicity of the compounds against four eukaryotic cell lines (Table 2 and Table S5), NRK-52E, an epithelial kidney cell line of Rattus norvegicus; Hep G2, an human epithelial liver cell line; and two suspension cell lines: CCRF-CEM, a T lymphoblast; and H9, a cutaneous T lymphocyte cell line.
(§2) Cell lines stored at −120 °C were thawed to 37 °C and resuspended in 10 mL of medium pre-warmed to 37 °C. Cells were pelleted at 300× g for 10 min, and then resuspended in fresh medium, seeded in a T-75 culture flask, and placed in a CO2 incubator (37 °C with 5% CO2 tension). Once the cells reached approximately 70–80% confluency, they were then passaged regularly. The adherent cell lines NRK52E, HepG2 and Huh 7 were washed once with 10 mL DPBS and detached with Trypsin-EDTA for 5 to 7 min and resuspended in 15 mL of the appropriate medium. The suspension cell line CCRF-CEM were diluted and resuspended in fresh RPMI 1640 PAN medium. To calculate the cell density, the cell resuspensions were diluted 1:6 with DPBS. Equal volumes of cell suspension and Trypan Blue were mixed and gently loaded into a haemocytometer (INCYTO, 31056 Republic of Korea). In each experiment, cell concentrations were adjusted to reach a concentration of 2.5 × 10^3 cell/well for NRK52E, 5 × 10^3 cell/well for HepG2, 6.2 × 10^4 cell/well for CCRF-CEM and 3 × 10^3 for H9. The cells were incubated with decreasing concentration of compounds (1 µL in 96% DMSO) for 72 h at 37 °C with 5% CO2 tension. Cycloheximide, a cytotoxic compound that interferes with the translocation step in eukaryotic protein synthesis was used as a control for the experiments. The assay was carried out in flat-bottom, transparent 96-well plates. Cell viability was determined using the PrestoBlue reagent (Thermo Fisher Scientific, Waltham, MA, USA) according to the manufacture’s protocol. First, 10× PrestoBlue was added to each well to obtain a 1× solution, and incubated at 37 °C for 45 min. Then, fluorescence was measured at Ex/Em: 550/595 nm using a ClarioStar microplate reader (BMG Labtech). Cytotoxicity was determined as the percentage of the difference in absorbance of the untreated sample to the treated sample. CC50 was calculated using the values obtained in each concentration using the sigmoidal dose-response by Prism v.8. The media used in each cell line is detailed in Table S6.

E. coli Neumann = assay: MIC broth microdilution, E. coli; type: cell-based; conditions: Escherichia coli; Table S3; read-out: MIC (µM) E. coli Neumann
Outline: (§3)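 CLSI broth microdilution in cation-adjusted Mueller Hinton broth, 5 × 10^4 bacteria per well with 1:2 serial compound dilutions, PMBN added where applicable. MIC read visually after 18 h at 37 °C. Confirmation by 10% PrestoBlue, fluorescence at Ex/Em 550/595 nm after 30 min.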

S. aureus 133 = assay: MIC broth microdilution, S. aureus; type: cell-based; conditions: Staphylococcus aureus, 133; Table S3
Outline: as §3

[2] = system: T-lymphoblast CCRF-CEM cell line; assay: Cytotoxicity assay (PrestoBlue), CCRF-CEM
Procedure: as §1, §2

[3] = system: Hep G2, epithelial liver cell line; assay: Cytotoxicity assay (PrestoBlue), HepG2; conditions: CC50, 72 h
Procedure: as §1, §2

[4] = target: T1, PBP3 of P. aeruginosa (PaPBP3) (Pseudomonas aeruginosa, UniProt G3XD46); assay: S2dfluo fluorescence transpeptidase assay; type: biochemical; conditions: 300 nM PaPBP3, 30 min preincubation, 37 °C; read-out: IC50 Determination with PaPBP3, S2dfluo Assay
T1 construct: P. aeruginosa PBP3 (amino acids 40 to 563); His-tag; made in house; host or cells: E. coli BL21 (DE3) Rosetta, plasmid pET41_PBP-3
T1 sequence (G3XD46 40-563): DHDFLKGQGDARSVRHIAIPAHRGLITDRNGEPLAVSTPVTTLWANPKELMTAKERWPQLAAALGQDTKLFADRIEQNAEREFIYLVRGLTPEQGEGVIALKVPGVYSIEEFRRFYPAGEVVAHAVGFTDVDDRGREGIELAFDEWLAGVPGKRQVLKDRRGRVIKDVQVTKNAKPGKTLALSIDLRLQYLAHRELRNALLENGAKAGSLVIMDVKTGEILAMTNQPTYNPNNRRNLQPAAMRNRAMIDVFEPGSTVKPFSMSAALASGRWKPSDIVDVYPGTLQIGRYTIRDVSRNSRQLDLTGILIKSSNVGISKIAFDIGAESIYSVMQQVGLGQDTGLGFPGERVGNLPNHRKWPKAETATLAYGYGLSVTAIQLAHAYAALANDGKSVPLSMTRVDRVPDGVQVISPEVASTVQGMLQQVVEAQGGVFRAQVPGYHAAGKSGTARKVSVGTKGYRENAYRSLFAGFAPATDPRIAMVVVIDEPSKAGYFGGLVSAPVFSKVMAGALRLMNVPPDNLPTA
Procedure: The assays were carried out in the presence of 5% DMSO and 0.01% Triton X100 to avoid the formation of colloidal structures and adsorption of protein and/or compounds to surfaces. The Z’-factor determined for the assay was 0.73 ± 0.28, indicating the suitability and robustness of the assay for high throughput screening (HTS) (Figure 1B,C).
The activity of soluble ^PaPBP3 (300 nM) was measured in the presence of 0.8 mM S2d, 1 mM D-alanine and 0.5 mM mBBr for 25 min by monitoring the increase in the fluorescence intensity of mBBr at Ex/Em: 394/490 nm using an Infinite M1000 microplate reader (Tecan, Männedorf, Switzerland). To test the effect of inhibitors, 100 µM or 0.8 to 100 µM of compounds diluted in 96% DMSO were incubated for 30 min and 450 rpm with 300 nM soluble PBP3. The incubation period was set to improve the binding of non-covalent inhibitors and 0.01% Triton X100 (Sigma-Aldrich, Taufkirchen, Germany) was added to prevent aggregation of compounds. The enzyme reaction was started by adding a substrate mix of 0.8 mM S2d and […]. The enzyme, compound and substrate mix were mixed 1:1, pipetted with a Liquidator 96 (Melter Toledo, Gießen, Germany) and the fluorescence intensity was directly monitored with an Infinite M1000 microplate reader (Tecan) at Ex/Em: 394/490 nm. The assay was performed in black, flat-bottom 96-well microplates (Greiner Bio-One, Kremsmünster, Austria) at 37 °C in Sorensen Phosphate Buffer (57 mM Na2HPO4 and 10 mM KH2PO4, pH 7.5 + 0.01% Triton X-100). The velocity of the PBP3 reaction was calculated in the presence of each concentration of compound and the velocity values were used to estimate IC50 by sigmoidal nonlinear regression, using Prism v.9 software (San Diego, CA, USA) and the velocity of the reaction at each concentration.

B. subtilis 168 = assay: MIC broth microdilution, B. subtilis; type: cell-based; conditions: Bacillus subtilis, 168; Table S3
Outline: as §3

[5] = system: H9, cutaneous T lymphocyte cell line; assay: Cytotoxicity assay (PrestoBlue), H9; conditions: CC50, 72 h
Procedure: as §1, §2

Row | SMILES | Cytotoxicity effect (µM) Epithelial kidney NRK52E [1] | MIC (E. coli Neumann) | MIC (S. aureus 133) | Cytotoxicity CCRF-CEM ([2]; CC50, 72 h) | Cytotoxicity effect (µM) Epithelial liver HepG2 [3] | IC50 [4] | MIC (B. subtilis 168) | Cytotoxicity effect (µM) T-lymphocyte H9 [5] | cytotoxic potential at the tested cell lines ([2]; four cell lines: NRK-52E, Hep G2, CCRF-CEM, H9)
1 | O=C(C1=C(N2CCOCC2)C(=O)N(Cc2cccc(F)c2)C1c1ccc(Cl)cc1)c1ccc(Br)cc1 (stereo not shown) [Compound 44, 4-(4-bromobenzoyl)-5-(4-chlorophenyl)-1-[(3-fluorophenyl)methyl]-3-(morpholin-4-yl)-5H-pyrrol-2-one] | 52 ± 3 µM | > 100 µM | > 100 µM | > 100 µM | > 100 µM | > 100 µM | > 100 µM | > 100 µM | –
2 | CCNC1=C(C(=O)c2ccc(Br)cc2)C(c2ccc(Cl)cc2)N(Cc2c[nH]c3ccccc23)C1=O (stereo not shown) [Compound 45] | 23 ± 11 µM | > 100 µM | 6.25 µM (≈ 3.43 µg/mL) | – | 23 ± 8 µM | > 100 µM | > 100 µM | 32 ± 10 µM | high cytotoxic potential
